Some test systems named below: A549 NSCLC; BT-549 breast; DU-145 prostate; HCT-15 colon; M14 melanoma; NCI-H23 lung; OVCAR-8 ovarian; SF-268 CNS; SF-539 CNS; SK-OV-3 ovarian.
Holding throughout (test): growth of human tumour cells (NCI), 48 h

Values joined by “and” are separate entries in the source; they are usually repeats but may differ in a detail not shown here. Identical values can stand only once.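 Dose response: 5 concentrations. Exposure: 48 h. Format: 96-well plates. Endpoint: linear interpolation; highest concentration if not reached. Abbreviation: GI50, concentration required for 50% inhibition of growth. TGI is the concentration that stops growth completely.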 Bounds are passed on as bounds.

`CCCCNC(c1ccc(Cl)cc1)C(O)c1ccc(Cl)cc1` (configuration not stated): the GI50 with A549 NSCLC was 3.87 µM; in the assay with BT-549 breast, 5.63 µM; with DU-145 prostate, 3.1 µM; in the assay with HCT-15 colon, 2.08 µM; in the assay on M14 melanoma it was 1.22 µM; in the assay on NCI-H23 lung, 2.25 µM. Further, the GI50 was 2.51 µM with OVCAR-8 ovarian, 3.21 µM in the assay on SF-268 CNS, 1.83 µM in the assay on SF-539 CNS and 5.72 µM in the assay on SK-OV-3 ovarian. Further, the TGI worked out at 17.8 µM in the assay on A549 NSCLC; 21.4 µM in the assay with BT-549 breast; 10.4 µM in the assay with DU-145 prostate; 5.7 µM with HCT-15 colon; 2.9 µM in the assay on M14 melanoma; 7.59 µM with NCI-H23 lung. Also, the TGI with OVCAR-8 ovarian came out at 6.02 µM; in the assay with SF-268 CNS it was 16.3 µM; in the assay on SF-539 CNS, 3.57 µM; in the assay with SK-OV-3 ovarian, 20 µM.

With `O=C1NC(O)c2cc3ccccc3cc2O1` (configuration not stated), the TGI is over 100 µM in the assay on A549 NSCLC; 82.1 µM in the assay on BT-549 breast; over 100 µM in the assay on DU-145 prostate; over 100 µM in the assay on HCT-15 colon; over 100 µM with M14 melanoma; over 100 µM in the assay with NCI-H23 lung. For the same molecule, the TGI was over 100 µM in the assay on OVCAR-8 ovarian, over 100 µM with SF-268 CNS, 89.9 µM in the assay with SF-539 CNS and over 100 µM in the assay on SK-OV-3 ovarian.

`COc1cc2c(cc1C)NC(=O)/C2=C/c1ccnc2ccccc12`: the GI50 with A549 NSCLC was 20.8 µM; in the assay with BT-549 breast, 29.1 µM; in the assay on DU-145 prostate it was 29.1 µM; in the assay with HCT-15 colon it was 20.5 µM; in the assay on M14 melanoma it was over 50 µM; in the assay on NCI-H23 lung it was 25.5 µM. The GI50 with OVCAR-8 ovarian is 19.1 µM; in the assay on SF-268 CNS, 18 µM; in the assay with SF-539 CNS, 20.8 µM; with SK-OV-3 ovarian, 12.6 µM. The TGI in the assay on A549 NSCLC, with BT-549 breast, in the assay on DU-145 prostate, with HCT-15 colon, with M14 melanoma and in the assay on NCI-H23 lung was over 50 µM in each case. Further, the TGI with OVCAR-8 ovarian, in the assay on SF-268 CNS, with SF-539 CNS and in the assay on SK-OV-3 ovarian was over 50 µM each time.

In the case of `O=c1[nH]c(C2CCCN2)nc2c1oc1ccc(Cl)cc12` (configuration not stated), the GI50 is over 100 µM in the assay on A549 NSCLC; 31.5 µM in the assay on BT-549 breast; over 100 µM in the assay with DU-145 prostate; over 100 µM in the assay with HCT-15 colon; 57.1 µM in the assay on M14 melanoma; over 100 µM with NCI-H23 lung. For the same molecule, the GI50 in the assay with OVCAR-8 ovarian was over 100 µM; in the assay on SF-268 CNS it was over 100 µM; in the assay with SF-539 CNS, 36.9 µM; in the assay on SK-OV-3 ovarian it was over 100 µM. In addition, the TGI with A549 NSCLC, in the assay on BT-549 breast, with DU-145 prostate, in the assay with HCT-15 colon, in the assay with M14 melanoma and with NCI-H23 lung was over 100 µM in each case. Besides, the TGI in the assay on OVCAR-8 ovarian, with SF-268 CNS, with SF-539 CNS and in the assay on SK-OV-3 ovarian was over 100 µM each time.

As for `COc1ccc(-n2c(=S)sc3c(Cl)nc(C)nc32)c(OC)c1`, the GI50 in the assay on A549 NSCLC is 4.45 µM; in the assay with BT-549 breast, 1.99 µM; in the assay with DU-145 prostate, 1.84 µM; in the assay on HCT-15 colon, 1.96 µM; in the assay on M14 melanoma, 1.84 µM; with NCI-H23 lung, 2.44 µM. Besides, the GI50 with OVCAR-8 ovarian was 2.66 µM; in the assay on SF-268 CNS it was 2.17 µM; with SF-539 CNS, 2.07 µM; with SK-OV-3 ovarian it was 14.3 µM. The TGI amounted to 15.8 µM in the assay on A549 NSCLC; 4.28 µM with BT-549 breast; 3.25 µM in the assay on DU-145 prostate; 5.43 µM in the assay on HCT-15 colon; 4.05 µM with M14 melanoma; 5.87 µM in the assay with NCI-H23 lung. In addition, the TGI is 7.4 µM in the assay on OVCAR-8 ovarian, 5.21 µM with SF-268 CNS, 4.55 µM in the assay on SF-539 CNS and 27.3 µM in the assay on SK-OV-3 ovarian.

With `[N-]=[N+]=CC(=O)CCC(N)C(=O)O` (configuration not stated), the GI50 was 2.78 µM in the assay on A549 NSCLC; 5.58 µM with DU-145 prostate; 2 µM in the assay with HCT-15 colon; 10.6 µM with M14 melanoma; 6.94 µM in the assay with NCI-H23 lung; 7.03 µM with OVCAR-8 ovarian. For the same molecule, the values for the GI50 in the assay with SF-268 CNS and with SF-539 CNS were 1.65 µM and 6.31 µM, respectively. Further, the TGI is over 250 µM in the assay on A549 NSCLC; over 250 µM in the assay on BT-549 breast; over 250 µM with DU-145 prostate; over 222 µM in the assay with HCT-15 colon; over 250 µM in the assay on M14 melanoma; over 215 µM in the assay on NCI-H23 lung. The TGI was over 218 µM with OVCAR-8 ovarian; 190 µM with SF-268 CNS; 48.7 µM and > 250 µM in the assay with SF-539 CNS; 34.3 µM in the assay on SK-OV-3 ovarian.

On to `C=C(Br)CN=CN(C)C`, for which the TGI with A549 NSCLC, in the assay on BT-549 breast, in the assay with DU-145 prostate, in the assay with HCT-15 colon, in the assay with M14 melanoma and in the assay with NCI-H23 lung was over 100 µM in each case. The TGI in the assay with OVCAR-8 ovarian, in the assay with SF-268 CNS, with SF-539 CNS and in the assay with SK-OV-3 ovarian was over 100 µM in each case.

As to `C[C@@H]1C[C@@H]([C@H](O)CC2CC(=O)NC(=O)C2)C(=O)[C@@H](C)C1`, the GI50 with A549 NSCLC is 0.204 µM; in the assay with BT-549 breast, 0.927 µM; in the assay on DU-145 prostate, 0.247 µM; in the assay with HCT-15 colon, 0.284 µM; with M14 melanoma, 0.248 µM; with NCI-H23 lung it was 0.274 µM. The GI50 in the assay with OVCAR-8 ovarian was 0.202 µM; in the assay on SF-268 CNS, 0.264 µM; in the assay with SF-539 CNS, 0.214 µM; in the assay with SK-OV-3 ovarian, 0.275 µM. For the same molecule, the TGI in the assay with A549 NSCLC is 1.76 µM and 1.73 µM; with BT-549 breast, 9.01 µM; in the assay with HCT-15 colon it was 15.9 µM and 9.96 µM; in the assay on M14 melanoma, 2.8 µM and 1.6 µM; in the assay on NCI-H23 lung, 4.78 µM and 0.941 µM; with OVCAR-8 ovarian, 1.7 µM and 1.27 µM. The TGI in the assay on SF-268 CNS is 1.94 µM; with SF-539 CNS, 2.7 µM and 0.838 µM; in the assay with SK-OV-3 ovarian, 5.31 µM and 12.2 µM.
